For assay [1], the target named is T1, Vaccinia-related kinase 1 (VRK1) (Homo sapiens, UniProt Q99986). In words: biochemical. Type of assay: binding.
In assay [2] the target is T1, Vaccinia-related kinase 1 (VRK1). The experiment in a line: biochemical. Type of assay: binding. The source holds these as a separate data set.

By pKd is commonly meant the Kd on a negative log10 scale, so that one unit is a factor of ten. A lower pKd goes with a large Kd.

Each structure is given as a SMILES string. pKd: −log10 of the molar value. Where two headings read alike, the source gives them in different places.

T1 sequence (Q99986 whole entry): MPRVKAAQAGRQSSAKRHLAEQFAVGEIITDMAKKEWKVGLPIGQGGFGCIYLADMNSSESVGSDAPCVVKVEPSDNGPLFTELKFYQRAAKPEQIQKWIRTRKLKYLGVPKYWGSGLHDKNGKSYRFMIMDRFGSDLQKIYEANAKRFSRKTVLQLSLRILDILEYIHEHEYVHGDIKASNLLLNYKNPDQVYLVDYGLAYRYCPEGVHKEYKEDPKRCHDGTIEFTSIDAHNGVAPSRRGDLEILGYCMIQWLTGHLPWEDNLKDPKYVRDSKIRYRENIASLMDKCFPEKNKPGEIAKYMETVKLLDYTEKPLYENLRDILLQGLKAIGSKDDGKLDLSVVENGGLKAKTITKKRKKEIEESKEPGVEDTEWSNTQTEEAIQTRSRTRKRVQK

`COc1ccc(-c2cc(=O)c3c(O)c(OC)c(O)cc3o2)cc1OC` [eupatilin] showed a pKd in assay [1] of 3.74.
Take `COc1c(O)cc(O)c2c(=O)cc(-c3ccccc3)oc12` [wogonin]: the pKd in assay [1] was 3.92.
Turning to `O=c1cc(-c2ccc(O)c(O)c2)oc2cc(O)cc(O)c12` [luteolin, 3′,4′,5,7-tetrahydroxyflavone], the pKd in assay [2] is 5.24.
